Measurements taken from patent US8802734B2, “Method of treating or preventing pain” (Novaremed Limited, priority 2009, dated 2014).

What was measured:
Balb/c mice [1] = assay: Formalin test; format: in vivo; settings: i.p. 0.2, 1, 2.5 mg/kg, formalin 1% intraplantar 3 h or 4 h after the treatment, FIGS. 12a-12e
Procedure: Formalin test. The method used was similar to that described by Hunscaar and Hole (1987) “The formalin test in mice: dissociation between inflammatory and non-inflammatory pain,” Pain 30, pp. 103-104.
Five animals are used in each group and two to three hours after oral administration of the conjugates, 40 μl or 20 μl (rats or mice, respectively) of a 1% formalin (in 0.9% saline) solution is injected subcutaneously into the dorsal surface hind paw. The formalin induced typical flinching behaviour of the injected paw which was counted. The animals were returned to a glass chamber and the total time spent by the animal licking or biting the injected paw was measured. Formalin induced pain behaviour is biphasic. The duration of paw licking was determined during the following two time periods: 0-5 min (first-neurogenic phase) and 20-30 min (second-inflammatory phase) after formalin injection.
Part a. Male mice (Balb/c mice, 27 weeks old, not naïve), were divided in 4 groups (5 mice per group) and treated (0 min, i.p.) with the following formulations, respectively: […]
Part b. Male mice (Balb/c mice, 27 weeks old, not naïve), were divided in 4 groups (5 mice in groups) and treated (0 min, i.p.) with the following formulations, respectively: […]

Balb/c mice [2] = assay: Hot-Plate Test (antinociceptive effect), sub-chronic oral administration; format: in vivo; settings: po daily for 16 days, 0.1 and 5 mg/Kg, hot plate on days 1, 8 and 15
Source text: The objective of the study was to assess antinociceptive activity of tested items in the hot plate tests in mice, when administered sub-chronically. Measuring paw licking or jumping response time elapses following placement on heated surface (hot plate) was used to determine potential antinociceptive effect in mice.
A total of 42 Balb/c mice (12 weeks old) were utilized. The mice were approximately 25 g males at study initiation. The minimum and maximum weights of the group were within a range of ±10% of group mean weight.
Compounds 2 and 3 were tested and compared with Diclofenac® (Perigo). DMSO solutions were used. Six groups of mice (each having n=7 or n=8 mice) were tested, the last group receiving Diclofenac®.
All groups received the drugs daily po for 16 days. Hot plate experiments were performed on days; 1, 8 and 15.
The hot plate is maintained thermostatically at a temperature of 52° C. One hour before the administration of the drugs, mice are tested in the hot plate. At time 0 the mice are administered with the test compound and the response to the hot plate is measured again at different times: 60, 120, 180, 240, 300 and 360 min.
Results are expressed as: Delta from maximum response [baseline vs. maximum response]; Absolute measures over time; and Accumulated time.

## CC(O)COCC(Cc1ccc(O)cc1)NC(=O)CCc1ccccc1 (stereo not drawn) [Compound 2]
Balb/c mice [1]
  anti-inflammatory properties (formalin test): confirm the anti-inflammatory properties
Balb/c mice [2]
  effectiveness as pain relievers (hot plate test): effective as pain relievers

## O=C(CCc1ccccc1)NC(COCCO)Cc1ccc(O)cc1 (stereo not drawn) [Compound 3]
Balb/c mice [2]
  effectiveness as pain relievers (hot plate test): effective as pain relievers
